IC50 data for 16 compounds are collected here from US20150352108A1, “AMINO-PYRIMIDINE COMPOUNDS AS INHIBITORS OF TBK1 AND/OR IKK EPSILON” (Alzheimer's Institute of America, priority 2009, published 2015).

Like-named read-outs stand apart in the source and are kept apart here.

The target of assay [1] is T1, IKKε (Homo sapiens, UniProt Q14164).
T1 construct: His-tag; made in house; host or cells: Sf9 insect cells
T1 sequence (Q14164 1-716): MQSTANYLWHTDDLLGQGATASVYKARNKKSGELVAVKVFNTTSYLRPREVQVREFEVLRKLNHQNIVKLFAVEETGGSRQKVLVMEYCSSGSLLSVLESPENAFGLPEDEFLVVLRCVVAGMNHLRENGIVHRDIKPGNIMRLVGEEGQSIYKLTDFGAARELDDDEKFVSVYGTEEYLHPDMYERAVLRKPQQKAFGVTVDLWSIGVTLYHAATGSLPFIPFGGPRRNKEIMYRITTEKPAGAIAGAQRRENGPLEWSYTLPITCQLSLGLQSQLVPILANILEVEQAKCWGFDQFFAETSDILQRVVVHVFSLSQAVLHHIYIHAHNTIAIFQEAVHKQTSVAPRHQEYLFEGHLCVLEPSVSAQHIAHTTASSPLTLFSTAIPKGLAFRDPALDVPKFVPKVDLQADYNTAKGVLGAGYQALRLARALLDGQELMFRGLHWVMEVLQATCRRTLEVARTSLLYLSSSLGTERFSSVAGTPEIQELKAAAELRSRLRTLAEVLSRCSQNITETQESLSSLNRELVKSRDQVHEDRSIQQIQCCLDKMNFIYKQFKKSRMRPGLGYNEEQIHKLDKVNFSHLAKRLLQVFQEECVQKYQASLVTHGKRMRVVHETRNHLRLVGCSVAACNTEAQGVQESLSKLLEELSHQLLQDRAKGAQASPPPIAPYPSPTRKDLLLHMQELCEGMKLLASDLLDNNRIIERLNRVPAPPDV
Kind of assay: In-vitro IKKε kinase assay ([γ33]ATP filter-plate). It counts as biochemical. The procedure, abridged:
(§1)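 Phosphorylation of casein or myelin basic protein was counted by P-81 filter capture after 30-45 min reactions stopped with phosphoric acid, with counts normalized to DMSO after background subtraction. ATP was twice Km: 60 μM for TBK1 and 32 μM for IKKε, plus [γ33]ATP. Sf9-expressed His-tag enzymes were used at normal/sensitized levels of 0.1/0.02 μg/ml (TBK1) and 0.1/0.015 μg/ml (IKKε).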

Assay [2] has as its system IKKε-mediated phosphorylation of IRF3. Kind of assay: In-situ phosphorylation of IRF3 (pIRF3 Ser396 ELISA) in HEK293T cells cotransfected with IRF3 and IKKε. It counts as cell-based. The note with it: Homo sapiens, HEK-293T. The essentials: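 For the IRF3 ELISA, HEK293T cells cotransfected with IRF3 and IKKε were replated at 20,000/well and treated 20 h. Phospho-Ser396 IRF3 was measured by ELISA and normalised to DMSO, with viability checked by CellTiter-Glo. For IRF7, cells transfected with IRF7 and TBK1 were treated overnight, and pSer477/Ser479 IRF7 was detected by Western blot.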
In general terms: An ELISA detects its analyte on a solid surface through an enzyme-linked reagent.

Assay [3] addresses T2, TBK1 (Homo sapiens, UniProt Q9UHD2).
T2 construct: His-tag; made in house; host or cells: Sf9 insect cells
T2 sequence (Q9UHD2 1-729): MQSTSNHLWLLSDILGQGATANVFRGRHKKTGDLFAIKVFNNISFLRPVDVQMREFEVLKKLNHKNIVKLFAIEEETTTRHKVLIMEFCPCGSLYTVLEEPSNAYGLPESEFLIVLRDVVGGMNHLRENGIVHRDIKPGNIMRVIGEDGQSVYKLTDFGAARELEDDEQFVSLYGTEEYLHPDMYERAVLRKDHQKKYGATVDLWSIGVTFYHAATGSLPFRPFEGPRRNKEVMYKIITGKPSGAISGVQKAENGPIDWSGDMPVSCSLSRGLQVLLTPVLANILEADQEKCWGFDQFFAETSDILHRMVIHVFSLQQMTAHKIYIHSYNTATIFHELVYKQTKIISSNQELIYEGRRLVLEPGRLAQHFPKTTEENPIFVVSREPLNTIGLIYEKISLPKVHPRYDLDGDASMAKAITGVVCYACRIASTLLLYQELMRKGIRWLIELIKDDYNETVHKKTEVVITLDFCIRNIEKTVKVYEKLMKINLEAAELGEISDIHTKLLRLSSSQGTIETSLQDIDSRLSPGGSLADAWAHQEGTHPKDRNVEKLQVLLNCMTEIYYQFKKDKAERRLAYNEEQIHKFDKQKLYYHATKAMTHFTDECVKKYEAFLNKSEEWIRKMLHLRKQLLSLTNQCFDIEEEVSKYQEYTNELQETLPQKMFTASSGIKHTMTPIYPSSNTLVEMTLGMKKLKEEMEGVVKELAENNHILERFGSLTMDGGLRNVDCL
Kind of assay: In-vitro TBK1 kinase assay ([γ33]ATP filter-plate). It is filed as biochemical. The essentials:
as §1

The mark [4] stands for this setting: text bins, read-out: IC50 for inhibition of the kinase activity of IKKε.
[5] abbreviates: HEK293T cells in culture, Table 3, read-out: pIRF3 ELISA IC50.
The mark [6] stands for this setting: HEK293T cells, 20 hours, text bins, read-out: IC50 for inhibition of the in-situ IKKε-mediated phosphorylation of IRF3.
The mark [7] stands for this setting: text bins, read-out: IC50 for inhibition of the kinase activity of TBK1.

In the case of `N#Cc1cc(-c2ccnc(Nc3ccc(N4CCN(CCO)CC4)cc3)n2)ccc1OCC1CC1` [compound 439, 2-(Cyclopropylmethoxy)-5-[2-({4-[4-(2-hydroxyethyl)piperazin-1-yl]phenyl}amino)pyrimidin-4-yl]benzonitrile], the half-inhibitory concentration (IC50) (usually the concentration that inhibits the measured activity by half) in assay [1] (Table 3, read-out: IKKε IC50) was 0.0004 µM; in assay [1] (setting [4]), under 0.005 µM; in assay [2] (setting [5]), 0.008 µM; in assay [2] (setting [6]) it was under 0.1 µM; in assay [3] (Table 3, read-out: TBK1 IC50), 0.0003 µM; in assay [3] (setting [7]), under 0.01 µM.
Turning to `N#Cc1cc(-c2ccnc(Nc3cccc(OCCN4CCOCC4)c3)n2)ccc1OC1CCOCC1` [compound 518, 5-[2-({3-[2-(Morpholin-4-yl)ethoxy]phenyl}amino)pyrimidin-4-yl]-2-(tetrahydro-2H-pyran-4-yloxy)benzonitrile], the half-inhibitory concentration (IC50) in assay [1] (setting [4]) is under 0.005 µM; in assay [2] (setting [6]), under 0.1 µM; in assay [3] (setting [7]) it was under 0.01 µM.
With `COc1cc(Nc2nccc(-c3ccc(OC4CCOCC4)c(C#N)c3)n2)ccc1CN1CC(OC)C1` [compound 482, 5-[2-({3-Methoxy-4-[(3-methoxyazetidin-1-yl)methyl]phenyl}amino)pyrimidin-4-yl]-2-(tetrahydro-2H-pyran-4-yloxy)benzonitrile], the 50% inhibitory concentration (IC50) in assay [1] (setting [4]) is under 0.005 µM; in assay [2] (setting [6]), under 0.1 µM; in assay [3] (setting [7]), under 0.01 µM.
On to `COc1cc(Nc2nccc(-c3ccc(OC4CCOCC4)c(C#N)c3)n2)ccc1S(=O)(=O)N1CCCN(C)CC1` [compound 392, 5-[2-({3-Methoxy-4-[(4-methyl-1,4-diazepan-1-yl)sulfonyl]phenyl}amino)pyrimidin-4-yl]-2-(tetrahydro-2H-pyran-4-yloxy)benzonitrile], for which the IC50 in assay [1] (Table 3, read-out: IKKε IC50) was 0.0002 µM; in assay [1] (setting [4]), under 0.005 µM; in assay [2] (setting [5]) it was 0.0122 µM; in assay [2] (setting [6]), under 0.1 µM; in assay [3] (Table 3, read-out: TBK1 IC50), 0.0002 µM; in assay [3] (setting [7]), under 0.01 µM.
With `COc1cc(Nc2nccc(-c3ccc(OC4CCOCC4)c(C#N)c3)n2)ccc1C(=O)N1CCN(CCO)CC1` [compound 476, 5-{2-[(4-{[4-(2-Hydroxyethyl)piperazin-1-yl]carbonyl}-3-methoxyphenyl)amino]pyrimidin-4-yl}-2-(tetrahydro-2H-pyran-4-yloxy)benzonitrile], the results for the IC50 in assay [1] (setting [4]), in assay [2] (setting [6]) and in assay [3] (setting [7]) were under 0.005 µM, under 0.1 µM and under 0.01 µM, respectively.
On to `N#Cc1cc(-c2ccnc(Nc3ccc(F)c(OCCN)c3)n2)ccc1OC1CCOCC1` [compound 640, 5-(2-{[3-(2-Aminoethoxy)-4-fluorophenyl]amino}pyrimidin-4-yl)-2-(tetrahydro-2H-pyran-4-yloxy)benzonitrile], for which the results for the IC50 in assay [1] (setting [4]), in assay [2] (setting [6]) and in assay [3] (setting [7]) were under 0.005 µM, 0.1 to 0.25 µM and under 0.01 µM, respectively.
Turning to `N#Cc1cc(-c2ccnc(Nc3ccc(OCCCN4CCOCC4)cc3)n2)ccc1OC1CCOCC1` [compound 527, 5-[2-({4-[3-(morpholin-4-yl)propoxy]phenyl}amino)pyrimidin-4-yl]-2-(tetrahydro-2H-pyran-4-yloxy)benzonitrile], the figures for the IC50 in assay [1] (setting [4]), in assay [2] (setting [6]) and in assay [3] (setting [7]) were under 0.005 µM, under 0.1 µM and under 0.01 µM, respectively.
For the compound `COc1cc(Nc2nccc(-c3ccc(NC(=O)C4CC4)c(C#N)c3)n2)ccc1C(=O)N1CC(OC)C1` [compound 603, N-{2-Cyano-4-[2-({3-methoxy-4-[(3-methoxyazetidin-1-yl)carbonyl]phenyl}amino)pyrimidin-4-yl]phenyl} cyclopropane-carboxamide], the values for the IC50 in assay [1] (setting [4]), in assay [2] (setting [6]) and in assay [3] (setting [7]) were under 0.005 µM, 0.1 to 0.25 µM and under 0.01 µM, respectively.
`COc1ccc(Nc2nccc(-c3ccc(OC4CCOCC4)c(C#N)c3)n2)cc1OCCCC1CCN(C(C)C)CC1` [compound 520, 5-{2-[(4-medthoxy-3-{3-[1-(propan-2-yl)piperidin-4-yl]propoxy}phenyl)amino]pyrimidin-4-yl}-2-(tetrahydro-2H-pyran-4-yloxy)benzonitrile]: the half-inhibitory concentration (IC50) in assay [1] (setting [4]) is under 0.005 µM; in assay [2] (setting [6]), under 0.1 µM; in assay [3] (setting [7]), under 0.01 µM.
As for `COc1cc(Nc2nccc(-c3ccc(OC4CCOCC4)c(C#N)c3)n2)ccc1C(=O)N1CC(N2CCOCC2)C1` [compound 475, 5-{2-[(3-Methoxy-4-{[3-(morpholin-4-yl)azetidin-1-yl]carbonyl}phenyl)amino]pyrimidin-4-yl}-2-(tetrahydro-2H-pyran-4-yloxy)benzonitrile], the half-inhibitory concentration (IC50) is under 0.005 µM in assay [1] (setting [4]), under 0.1 µM in assay [2] (setting [6]) and under 0.01 µM in assay [3] (setting [7]).
The matching figures for `COc1cc(Nc2nccc(-c3ccc(OC4CCOCC4)c(C#N)c3)n2)ccc1CO` [compound 498, 5-(2-{[4-(hydroxymethyl)-3-methoxyphenyl]amino}pyrimidin-4-yl)-2-(tetrahydro-2H-pyran-4-yloxy)benzonitrile]: under 0.005 µM, under 0.1 µM and under 0.01 µM.
The matching figures for `COc1cc(Nc2nccc(-c3ccc(OC4CCOCC4)c(C#N)c3)n2)ccc1S(=O)(=O)N1CCC(N(C)C)C1` (centres unmarked) [compound 400, 5-{2-[(4-{[3-(dimethylamino)pyrrolidin-1-yl]sulfonyl}-3-methoxyphenyl)amino]pyrimidin-4-yl}-2-(tetrahydro-2H-pyran-4-yloxy)benzonitrile]: under 0.005 µM, under 0.1 µM and under 0.01 µM.
With `N#Cc1cc(-c2ccnc(Nc3cccc(-c4nnn[nH]4)c3)n2)ccc1OC1CCOCC1` [compound 594, 2-(Tetrahydro-2H-pyran-4-yloxy)-5-(2-{[3-(1H-tetrazol-5-yl)phenyl]amino}pyrimidin-4-yl)benzonitrile], the half-inhibitory concentration (IC50) is 0.0003 µM in assay [1] (Table 3, read-out: IKKε IC50); under 0.005 µM in assay [1] (setting [4]); over 5 µM in assay [2] (setting [5]); 0.002 µM in assay [3] (Table 3, read-out: TBK1 IC50); under 0.01 µM in assay [3] (setting [7]).
Regarding `CCN1CCC(CCCOc2cc(Nc3nccc(-c4ccc(OC5CCOCC5)c(C#N)c4)n3)ccc2OC)CC1` [compound 521, 5-[2-({3-[3-(1-ethylpiperidin-4-yl)propoxy]-4-methoxyphenyl}amino)pyrimidin-4-yl]-2-(tetrahydro-2H-pyran-4-yloxy)benzonitrile], the IC50 was under 0.005 µM in assay [1] (setting [4]), under 0.1 µM in assay [2] (setting [6]) and under 0.01 µM in assay [3] (setting [7]).
On to `CC1(COc2ccc(-c3ccnc(Nc4ccc(N5CCOCC5)cc4)n3)cc2C#N)COC1` [compound 444, 2-[(3-Methyloxetan-3-yl)methoxy]-5-(2-{[4-(morpholin-4-yl)phenyl]amino}pyrimidin-4-yl)benzonitrile], for which the concentration for half-maximal inhibition (IC50) in assay [1] (setting [4]) was under 0.005 µM; in assay [2] (setting [6]), under 0.1 µM; in assay [3] (setting [7]), under 0.01 µM.
For the compound `COc1cc(-c2ccnc(Nc3ccc(N4CCOCC4)cc3)n2)cc(C#N)c1OC1CCNCC1` [compound 440, 3-Methoxy-5-(2-{[4-(morpholin-4-yl)phenyl]amino}pyrimidin-4-yl)-2-(piperidin-4-yloxy)benzonitrile], the values for the IC50 in assay [1] (setting [4]), in assay [2] (setting [6]) and in assay [3] (setting [7]) were under 0.005 µM, under 0.1 µM and under 0.01 µM, respectively.
